From article PMC4847154, “Sticky swinging arm dynamics: studies of an acyl carrier protein domain from the mycolactone polyketide synthase” (Biochemical Journal, 2016)

How the values were obtained:
[1] = biological target: T1, mACP9 (ACP domain from MLSA2, module 9 of the mycolactone PKS) (Mycobacterium ulcerans, UniProt Q6MZA5); assay: circular dichroism thermal denaturation; assay type: binding; settings: absolute Tm
T1 construct: excised ACP domain, residues 2050-2140; N-terminal His6-tag cleaved by thrombin leaving GSHM; E. coli Tuner(DE3); monomer; Ppant attachment at Ser2096

[2] = biological target: T1, mACP9 (ACP domain from MLSA2, module 9 of the mycolactone PKS); assay: solution NMR structure; assay type: binding; settings: covalent at Ser2096; nonpolar pocket between helix α2 and turns α2′ and α3′; phosphate buffer pH 7.5, 283 K

Compound: hexanoyl-mACP9 (hexanoyl-phosphopantetheine group)
- Tm ([1]; covalent at Ser2096 (hexanoyl-Ppant), buffer as above, apo and holo references in the same sentence): 58 °C

Compound: CC(C)(COP(=O)(O)O)[C@@H](O)C(=O)NCCC(=O)NCCS [holo, 4′-phosphopantetheine]
- Tm ([1]; covalent at Ser2096 (holo form), 20 mM sodium hydrogen phosphate, 50 mM NaF, pH 7.5, apo reference in the same sentence): 59 °C

Compound: CCCCCCCC(=O)SCCNC(=O)CCNC(=O)[C@H](O)C(C)(C)COP(=O)(O)O [octanoyl, octanoyl-phosphopantetheine group]
- solution NMR structure [2]: final ensemble for octanoyl-mACP9 were deposited in the Protein Data Bank under ID code 5HV8
- Tm ([1]; covalent at Ser2096 (octanoyl-Ppant), buffer as above, apo and holo references in the same sentence): 57 °C
